Reference: publication PMC8875489, “Pharmaceutical and Safety Profile Evaluation of Novel Selenocompounds with Noteworthy Anticancer Activity” (Pharmaceutics, 2022)
Where two headings read alike, the source gives them in different places.

Experiments:
[1] = PAMPA membrane permeability test (capillary electrophoresis); type: in vitro ADME; details: for Papp at 5 h, 50 µM: 50 μM in PBS pH 7.4, 5 h, room temperature, read-out: In Vitro Permeability
Procedure: The passive transport and membrane absorption of 5 selected selenocompounds (EDA-58, EDA-71, EDA-119, EDA-122, and EDA-A6) were evaluated with the in vitro parallel artificial membrane permeability assay (PAMPA). This PAMPA assay could provide better predictability and membrane permeability correlations compared to the data obtained for human absorption in the Caco-2 cell line. The Precoated PAMPA Plate System Gentest™ (Corning, Bradford, MA, USA) was used to perform the permeability assay for the 5 selected Se compounds. The protocol of the permeability assay was similar to the previously described ones and is detailed in the Supplementary Materials.
Five selenocompounds (EDA-58, EDA-71, EDA-119, EDA-122, and EDA-A6) were evaluated with the PAMPA in vitro assay using the CE technique.
[formula] Scheme 1 Calculation of the in vitro permeability (cm/s). A (filter area) cm^2 = 0.3; VD (donor well volume) mL = 0.3; VA (acceptor well volume) mL = 0.2; t (incubation time) seconds = 18,000; CA(t) (compound concentration in acceptor well at time t); CD(t) (compound concentration in donor well at time t). […]
(§1) 1.3. PAMPA test: membrane permeability evaluation.
(§2) The passive transport and the membrane absorption of 5 selected selenocompounds (EDA-58, EDA-71, EDA-119, EDA-122, EDA-A6) were evaluated in the in vitro Parallel Artificial Membrane Permeability Assay (PAMPA). The protocol of the permeability assay was similar to the ones previously described.
1.3.1. Stock solutions and sample preparation for PAMPA test
Working solutions of the tested compounds at the concentration of the 50 μM in the phosphate saline buffer (PBS, pH 7.4) were prepared from the stocks in the pure dimethyl sulfoxide (DMSO) and stored at -20° C. Moreover, to draw the precise calibration curves for each tested (EDA-58, EDA-71, EDA-119, EDA-122, EDA-A6) and reference com- […]
The Precoated PAMPA Plate System Gentest™ (Corning, Bradford, MA, USA) was used to perform permeability assay for the 5 selected Se-compounds. The essential part of […]
solvents. PAMPA Plate System was brought to room temperature 30 min before use.
The 96-well filter plate precoated with lipids was used as a permeation acceptor, whereas the 96-well receiver plate acted as the permeation donor plate. Therefore, the compound solutions were added to the wells (300 μL/well) of the receiver plate and PBS was added to wells (200 μL/well) of the precoated filter plate.
Then, the filter plate was coupled with the receiver plate and both were incubated at room temperature for five hours without agitation. […] Fi-nally, the permeability coefficients (Pe, [cm/s]) of the tested compounds were estimated using the formula provided by the PAMPA Plate System manufacturer.
1.3.3. Capillary electrophoresis (CE) analytical method […]
were calculated in both the donor and acceptor compartments using the capillary electro-

[2] = test system: Salmonella Typhimurium TA100 strain; details: for Fold Increase over Baseline / MI (mutagenic index) / B (binomial B value): TA100; for Fold Increase over Baseline: alert ≥ 2.0; for MI (mutagenic index): mutagenic if MI ≥ 2; for B (binomial B value): threshold ≥ 0.99
Procedure: Safety profiles were evaluated using an in vitro microbiological method adapted to the microplate Ames test (384-well microtitration plate), which applies Salmonella enterica serovar Typhimurium bacterial strains (the gold standard in mutagenicity research). The experiment was performed according to a previously described protocol, which is provided in the Supplementary Materials. Briefly, the TA 100 strain (deprived of the ability to synthesize the histidine) was incubated with each tested compound in an exposure medium containing a limited amount of histidine. The reversion events were counted both manually and by means of a microplate reader. Each fold increase bigger than two times the baseline level (≥2.0-fold) was considered to indicate a mutagen alert. The experiments and data analyses were prepared according to the procedure that was previously described by Flückiger-Isler et al.. The assay was performed in triplicate. The positive control selected for the mutagenicity assays was NQNO, which causes genome point mutations; specifically, it promotes G:C → A:T transitions in the Salmonella Typhimurium TA-100 strain and other bacteria such as Vibrio harveyi and Escherichia coli.
In the next step of the studies, the in vitro safety profiles of the tested selenocompounds were evaluated. All compounds were tested with the 384-well plate microfluctuation Ames test. The mutagenic index (MI) was used as the measure of mutagenicity.
1.5. Safety profile evaluation - Ames microplate mutagenicity assay
Safety profile was evaluated by the means of in vitro microbiological methods – adapted to microplate Ames test, which applies Salmonella enterica serovar Typhimurium bacterial strains (the gold standard in mutagenicity research).
1.5.1. Compounds preparation
To evaluate the impact of tested compounds and of references on Salmonella enterica serovar Typhimurium (onwards Salmonella Typhimurium) TA-100 strain growth by means of the Ames test, the compounds or the reference were dissolved in the pure DMSO, to obtain the corresponding 10 mM stock solutions. Working solutions for tested compounds (25 μM and 250 μM concentrations) were prepared before the assay in DMSO.
1.5.2. Microplate Ames mutagenicity assay protocol
Prior to the experiment, Salmonella Typhimurium was cultured overnight (NB-2 liq-uid medium in the presence of 25 μg/mL ampicillin). At the day of the experiment, fresh dilutions of the tested compounds (25 μM and 250 μM), reference compound (methylse-leninic acid) and standard mutagen (4-nitroquinoline-N-oxide at 2.5 μM and 12.5 μM) in DMSO were prepared. The positive control selected for the mutagenicity assays was NQNO, which causes point mutations at the genome. Specifically, it promotes G:C → A:T transitions in Salmonella Typhimurium TA-100 strain and in the other bacteria such as Vib-rio harveyi and Escherichia coli.
The mutagenic potential of the tested derivatives was evaluated by the incubation of the abovementioned bacteria (deprived of the ability to synthesize the histidine) with spe-cific concentrations of the tested compounds (for 90 min in the exposure medium), con-taining a limited amount of histidine (enough to provide approximately 2-3 cell divisions).
The occurrence of reversion events to histidine prototrophy was observed through the bacterial growth in the indicator medium without histidine after 48 h of incubation in temperature of 37° C [45]. The final compound and the mutagenic agent concentrations in each single well of a 384 well plate were 1 μM and 10 μM for the compounds; and 0.1 μM and 0.5 μM for the mutagen. Lastly, both a manual count and a microplate reader were used to obtain the results. The medium control baseline (MCB) was estimated as the mean number of revertants in the medium control plus one standard deviation. Each fold in-crease bigger than two times the baseline level ≥ 2.0 was considered as a mutagen alert.

[3] = Experimental aqueous solubility (UV spectrophotometry of saturated solutions); type: physicochemical; details: water (saturated solution), water, thermodynamic from solid
Procedure: Experimental aqueous solubility was determined following a previously described procedure. Briefly, calibration curves were obtained by means of UV spectrometry for each compound, and their respective linear equations were obtained. Afterwards, saturated solutions of each compound were obtained, and they were diluted until the concentration fell within the calibration range, thus enabling the correct concentration interpolation. […] A detailed description of this process can be found in Supplementary Materials.
The aqueous solubility of the tested organic Se compounds was experimentally determined following a previously described procedure. The chosen assay used UV spectrophotometry to estimate the concentration of the saturated solution with known dilutions of the tested compound at room temperature (20° C) after 24 h. The concentrations of the solutions were used to obtain the interpolation of the measured UV absorbance of the saturated solution dilution from the calibration curve drawn using solutions previously prepared in methanol/water mixtures. […]
1.2. Determination of the aqueous solubility
1.2.1. Preparation of the saturated solutions of tested compounds
The saturated solutions (2 mL) of the tested Se-compounds in water were prepared at H2O boiling point in small glass vials. Later, vials were covered to avoid evaporation and all solutions were left 1 day at 20° C, after when every solution was filtered. Finally, the concentration of the Se-compounds was determined through UV spectrophotometric measurements. To estimate correctly the concentration, calibration curves with known concentrations were prepared, and the saturated solutions were diluted till reaching a point within the range of the respective calibration curve.
1.2.2. Preparation of the calibration curve stock solutions for UV spectrometry The stock solutions of 10 selenoesters (EDA-26, EDA-71, EDA-73, EDA-74, EDA-93, […]
were prepared in methanol (99% purity) at a 1 g/L concentration. Additionally, calibration solutions in the range from 0.0005 to 0.02 [g/L] were prepared for each Se-compound and their UV absorbance was determined to draw the corresponding calibration curve.
1.2.3. Sample preparation of saturated filtrates for UV spectrometry
The 100-fold diluted solutions of the saturated filtrates of the Se-compounds were prepared in the anhydrous methanol (99% purity), by addition of 70 μL of the correspond-ing methanol stock solution over anhydrous methanol till filling a 7 mL final volume. Af-terwards, the absorption of abovementioned solutions was determined. Finally, the solu-tions were diluted with 99% methanol from 1 to 160 times, in function of the compound.
The aim of this procedure was to determine the concentration of the Se-compounds […]
through the controlled dilution of the solution with unknown concentration till its UV absorbance fell within the range of the calibration solutions.
1.2.4. Solubility estimation
For each compound, the calibration curve was calculated through the UV absorbance measurements and the linear equation of the linear part of the curve was calculated. The absorbance of the dilution was then interpolated in this range, finding its concentration.
To determine the solubility, this concentration was multiplied by the dilution factor, which was specific for each derivative. This action enabled the estimation of the in vitro solubility of the tested derivatives in saturated solutions. All the solubility values were the average value obtained from the 3 independent measurements.
as §1, §2
1.3.1. Stock solutions and sample preparation for PAMPA test […]

[4] = parameters: method as in PMID 28245633; details: known selenocompounds; cited from earlier work

SMILES	Fold Increase over Baseline ([2]; 1 µM)	MI (mutagenic index) ([2]; 1 µM)	B (binomial B value) ([2]; 1 µM)	Fold Increase over Baseline ([2]; 10 µM)	MI (mutagenic index) ([2]; 10 µM)	B (binomial B value) ([2]; 10 µM)	permeability [4]	other results
Cn1c(=O)c2c(ncn2C)n(C)c1=O [Caffeine, caffeine, reference compound]	–	–	–	–	–	–	–	Papp at 5 h, 50 µM [1]: 3.42 ×10⁻⁶ cm/s; % Perm. (percentage that crossed from the donor well to the acceptor well) ([1]; 5 h): 6.05%
COc1cccc2c1C(=O)c1c(O)c3c(c(O)c1C2=O)C[C@@](O)(C(=O)CO)C[C@@H]3O[C@H]1C[C@H](N)[C@H](O)[C@H](C)O1 [DOXO, doxorubicin, reference compound]	1.31	1.64	1.00	0.77	0.95	0.46	–	–
COC(=O)C[Se]C(=O)c1ccccc1Cl [EDA-46, methyl 2-((2-chlorobenzoyl)selanyl)acetate]	1.65	1.56	1.00	1.00	0.94	0.88	–	–
COC(=O)C[Se]C(=O)c1ccccc1 [EDA-53, methyl 2-(benzoylselanyl)acetate]	1.10	1.82	1.00	1.04	1.72	0.98	–	mutagenicity conclusion in Ames test ([2]; TA100, 1 and 10 µM): non-mutagenic
COC(=O)C[Se]C(=O)Cc1ccccc1 [EDA-56, methyl 2-((2-phenylacetyl)selanyl)acetate]	0.93	1.46	0.88	0.90	0.85	0.75	–	–
NC(=O)C[Se]C(=O)c1ccccc1 [EDA-117, Se-carbamoylmethyl benzoselenoate]	0.49	0.66	0.36	0.42	0.57	0.18	–	solubility at 24 h ([3]; 20 °C, logSm calculated based on solubility Sm (mol/L), read-out: Experimental Aqueous Solubility logSm (converted)): 4.27 mM; solubility at 24 h ([3]; room temperature (20° C), after 24 h, average of 3, read-out: Experimental Aqueous Solubility): 1030 µg/mL
N[C@@H](CC[Se]CC[C@H](N)C(=O)O)C(=O)O [L-selenohomolanthionine]	–	–	–	–	–	–	2.5%	–
C[Se](=O)O [MetSeAc, methylseleninic acid, reference compound]	0.75	0.90	0.37	0.74	0.96	0.47	–	–
CCn1cc(C(=O)O)c(=O)c2cc(F)c(N3CCNCC3)cc21 [Norfloxacin, norfloxacin, reference compound]	–	–	–	–	–	–	–	Papp at 5 h, 50 µM [1]: 0.0949 ×10⁻⁶ cm/s
C[Se]C1O[C@H](CO)[C@H](O)[C@H](O)[C@H]1NC(C)=O (some centres unmarked) [Se-methylseleno-N-acetylgalactosamine]	–	–	–	–	–	–	2.9%	–
N#C[SeH] [anionic selenocyanate, selenocyanate]	–	–	–	–	–	–	3.8%	–
C[Se+](C)C [cationic trimethylselenonium, trimethylselenonium]	–	–	–	–	–	–	3.0%	–
C[Se]C[C@H](N)C(=O)O [methylselenocysteine]	–	–	–	–	–	–	17.2%	–
O=[Se](O)O [selenite]	–	–	–	–	–	–	3.4%	–
N[C@@H](C[Se][Se]C[C@H](N)C(=O)O)C(=O)O [selenocystine]	–	–	–	–	–	–	3.1%	–
C[Se]CC[C@H](N)C(=O)O [selenomethionine]	–	–	–	–	–	–	12.4%	–
